{"source": "patent US20020110815A1", "about": "“Novel genes, compositions and methods for the identification, assessment, prevention, and therapy of human cancers” (priority 2000, published 2002)", "key": {"[1]": {"test_system": "TAXOL resistant cancer cell lines", "assay": "TAXOL growth inhibition (GI50), mean of TAXOL resistant cell lines", "assay_type": "cell-based, human", "conditions": "mean of the nine TAXOL resistant cell lines of Table B", "experimental": "(§1) One group of nine cell lines was determined to be sensitive to TAXOL (Table C), the other group of nine cell lines was determined to be resistant to TAXOL (Table B). Sensitivity to TAXOL was based on known GI50 values for these cells, which for this study was defined as the concentration of TAXOL required to inhibit growth of the cell line by 50%. More precisely, the quantity used in the calculation is the potency measure −log {GI50}. Pooled RNA from TAXOL sensitive cancer cell lines was used as tester against driver RNA pooled from TAXOL resistant cancer cell lines. The results of this subtractive library are shown in SEQ ID NOS: 1-127, SEQ ID NOS: 398-517 and SEQ ID NOS: 746-841. Pooled RNA from TAXOL resistant cancer cell lines was used as tester against driver RNA pooled from TAXOL sensitive cancer cell lines. The results of this subtractive library are shown in SEQ ID NOS: 128-397, SEQ ID NOS: 518-745 and SEQ ID NOS: 842-1046."}, "[2]": {"test_system": "TAXOL sensitive cancer cell lines", "assay": "TAXOL growth inhibition (GI50), mean of TAXOL sensitive cell lines", "assay_type": "cell-based", "conditions": "Homo sapiens; mean of the nine TAXOL sensitive cell lines of Table C; read-out: Log GI 50 for TAXOL (Mean) (converted)", "experimental": "as §1"}, "EKVX": {"test_system": "EKVX", "conditions": "non-small cell lung carcinoma, TAXOL resistant cell line; cited from earlier work"}, "HOP-92": {"test_system": "HOP-92", "conditions": "HOP-92, non-small cell lung carcinoma, TAXOL resistant cell line; cited from earlier work"}, "HCT-15": {"test_system": "HCT-15", "conditions": "HCT-15, colon, TAXOL resistant cell line; cited from earlier work"}, "MALME-3M": {"test_system": "MALME-3M", "conditions": "melanoma, TAXOL resistant cell line; cited from earlier work"}, "SK-MEL-28": {"test_system": "SK-MEL-28", "conditions": "SK-MEL-28, melanoma, TAXOL resistant cell line; cited from earlier work"}, "OVCAR-4": {"test_system": "OVCAR-4", "conditions": "OVCAR-4, ovarian, TAXOL resistant cell line; cited from earlier work"}, "ACHN": {"test_system": "ACHN", "conditions": "renal, TAXOL resistant cell line; cited from earlier work"}, "MCF-7/AdrRes": {"test_system": "MCF-7/AdrRes", "conditions": "breast, TAXOL resistant cell line; cited from earlier work"}, "T-47D": {"test_system": "T-47D", "conditions": "breast, TAXOL resistant cell line; cited from earlier work"}, "NCI-H460": {"test_system": "NCI-H460", "conditions": "NCI-H460, non-small cell lung carcinoma, TAXOL sensitive cell line; cited from earlier work"}, "NCI-H522": {"test_system": "NCI-H522", "conditions": "NCI-H522, non-small cell lung carcinoma, TAXOL sensitive cell line; cited from earlier work"}, "HT-29": {"test_system": "HT-29", "conditions": "HT-29, colon, TAXOL sensitive cell line; cited from earlier work"}, "SK-MEL-2": {"test_system": "SK-MEL-2", "conditions": "SK-MEL-2, melanoma, TAXOL sensitive cell line; cited from earlier work"}, "SK-MEL-5": {"test_system": "SK-MEL-5", "conditions": "SK-MEL-5, melanoma, TAXOL sensitive cell line; cited from earlier work"}, "OVCAR-3": {"test_system": "OVCAR-3", "conditions": "OVCAR-3, ovarian, TAXOL sensitive cell line; cited from earlier work"}, "SN12C": {"test_system": "SN12C", "conditions": "renal, TAXOL sensitive cell line; cited from earlier work"}, "MCF-7": {"test_system": "MCF-7", "conditions": "MCF-7, breast, TAXOL sensitive cell line; cited from earlier work"}, "MDA-MB-435": {"test_system": "MDA-MB-435", "conditions": "MDA-MB-435, breast, TAXOL sensitive cell line; cited from earlier work"}, "tumor": {"test_system": "tumor", "conditions": "animal models; cited from earlier work"}}}
{"molecule": "CC(=O)O[C@H]1C(=O)[C@@]2(C)[C@H]([C@H](OC(=O)c3ccccc3)[C@]3(O)C[C@H](OC(=O)[C@H](O)[C@@H](NC(=O)c4ccccc4)c4ccccc4)C(C)=C1C3(C)C)[C@]1(OC(C)=O)CO[C@@H]1C[C@@H]2O", "note": "[TAXOL]", "values": [{"measurement": "Log GI 50 for TAXOL (Mean)", "setting": "[1]", "result": "−6.5"}, {"measurement": "GI50", "setting": "[2]", "result": 3.16, "unit": "nM"}, {"measurement": "Log GI 50 for TAXOL", "setting": "EKVX", "result": "−6.6"}, {"measurement": "Log GI 50 for TAXOL", "setting": "HOP-92", "result": "−7.2"}, {"measurement": "Log GI 50 for TAXOL", "setting": "HCT-15", "result": "−6.7"}, {"measurement": "Log GI 50 for TAXOL", "setting": "MALME-3M", "result": "−6.8"}, {"measurement": "Log GI 50 for TAXOL", "setting": "SK-MEL-28", "result": "−7.1"}, {"measurement": "Log GI 50 for TAXOL", "setting": "OVCAR-4", "result": "−6.3"}, {"measurement": "Log GI 50 for TAXOL", "setting": "ACHN", "result": "−5.8"}, {"measurement": "Log GI 50 for TAXOL", "setting": "MCF-7/AdrRes", "result": "−5.5"}, {"measurement": "Log GI 50 for TAXOL", "setting": "T-47D", "result": "−6.9"}, {"measurement": "Log GI 50 for TAXOL", "setting": "NCI-H460", "result": "−8.5"}, {"measurement": "Log GI 50 for TAXOL", "setting": "NCI-H522", "result": "−8.5"}, {"measurement": "Log GI 50 for TAXOL", "setting": "HT-29", "result": "−8.6"}, {"measurement": "Log GI 50 for TAXOL", "setting": "SK-MEL-2", "result": "−8.3"}, {"measurement": "Log GI 50 for TAXOL", "setting": "SK-MEL-5", "result": "−8.4"}, {"measurement": "Log GI 50 for TAXOL", "setting": "OVCAR-3", "result": "−8.5"}, {"measurement": "Log GI 50 for TAXOL", "setting": "SN12C", "result": "−8.5"}, {"measurement": "Log GI 50 for TAXOL", "setting": "MCF-7", "result": "−8.5"}, {"measurement": "Log GI 50 for TAXOL", "setting": "MDA-MB-435", "result": "−8.6"}]}
{"molecule": "CC(=O)O[C@@]12CO[C@@H]1C[C@H](O)[C@@]1(C)C(=O)[C@H](O)C3=C(C)[C@@H](OC(=O)[C@H](O)[C@@H](NC(=O)OC(C)(C)C)c4ccccc4)C[C@@](O)([C@@H](OC(=O)c4ccccc4)[C@H]21)C3(C)C", "note": "[Taxotere, docetaxel]", "values": [{"measurement": "anti-tumor activity", "setting": "tumor", "result": "good anti-tumor activity"}]}
